Like-named read-outs stand apart in the source and are kept apart here.
Legend:
Human Calpain 9/NS1 = biological target: T1, Human Calpain 9/NS1 (Homo sapiens, UniProt O14815); assay: Calpain inhibition continuous fluorescence (FRET) assay, Human Calpain 9/NS1; assay type: biochemical; conditions: read-out: Human Calpain 9/NS1 IC50
T1 sequence (O14815 1-690): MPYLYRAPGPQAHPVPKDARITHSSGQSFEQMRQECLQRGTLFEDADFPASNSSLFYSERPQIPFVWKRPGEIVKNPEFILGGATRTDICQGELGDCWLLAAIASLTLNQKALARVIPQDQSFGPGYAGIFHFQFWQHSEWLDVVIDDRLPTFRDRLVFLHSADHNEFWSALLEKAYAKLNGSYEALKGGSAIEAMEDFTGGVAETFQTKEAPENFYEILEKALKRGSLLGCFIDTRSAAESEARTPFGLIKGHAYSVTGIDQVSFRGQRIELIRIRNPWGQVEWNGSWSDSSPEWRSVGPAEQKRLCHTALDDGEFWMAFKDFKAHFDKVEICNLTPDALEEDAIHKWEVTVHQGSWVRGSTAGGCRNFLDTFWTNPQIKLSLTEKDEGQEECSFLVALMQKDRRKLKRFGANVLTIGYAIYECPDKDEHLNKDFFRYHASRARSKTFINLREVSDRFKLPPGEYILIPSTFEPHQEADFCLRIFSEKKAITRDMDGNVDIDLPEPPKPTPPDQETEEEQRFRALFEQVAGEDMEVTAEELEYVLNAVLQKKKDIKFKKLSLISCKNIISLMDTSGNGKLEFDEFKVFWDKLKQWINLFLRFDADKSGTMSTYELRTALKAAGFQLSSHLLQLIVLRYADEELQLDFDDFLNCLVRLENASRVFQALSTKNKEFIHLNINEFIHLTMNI
T1 sequence (P04632 1-268 partner): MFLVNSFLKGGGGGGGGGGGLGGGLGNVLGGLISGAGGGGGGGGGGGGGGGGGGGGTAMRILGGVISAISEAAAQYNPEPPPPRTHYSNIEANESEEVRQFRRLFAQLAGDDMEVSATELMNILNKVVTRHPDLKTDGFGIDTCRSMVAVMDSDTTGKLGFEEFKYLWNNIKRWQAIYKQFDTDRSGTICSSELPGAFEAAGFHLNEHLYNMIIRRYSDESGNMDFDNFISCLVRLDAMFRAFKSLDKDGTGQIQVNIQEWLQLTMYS
Outline: (§1)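 Inhibitors were preincubated with calpain in 50 mM Tris pH 7.5, 100 mM NaCl, 1 mM DTT at 25C. Reactions were started with 5-FAM/QXL 520 FRET peptide substrate plus CaCl2 and read at 490/520 nm for 10 min. IC50s came from 4-parameter fits of slope rates (1-5 min).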

Human Calpain 2/NS1 = biological target: T2, Human Calpain 2/NS1 (Homo sapiens, UniProt P17655); assay: Calpain inhibition continuous fluorescence (FRET) assay, Human Calpain 2/NS1; assay type: biochemical; conditions: read-out: Human Calpain 2/NS1 IC50
T2 sequence (P17655 1-700): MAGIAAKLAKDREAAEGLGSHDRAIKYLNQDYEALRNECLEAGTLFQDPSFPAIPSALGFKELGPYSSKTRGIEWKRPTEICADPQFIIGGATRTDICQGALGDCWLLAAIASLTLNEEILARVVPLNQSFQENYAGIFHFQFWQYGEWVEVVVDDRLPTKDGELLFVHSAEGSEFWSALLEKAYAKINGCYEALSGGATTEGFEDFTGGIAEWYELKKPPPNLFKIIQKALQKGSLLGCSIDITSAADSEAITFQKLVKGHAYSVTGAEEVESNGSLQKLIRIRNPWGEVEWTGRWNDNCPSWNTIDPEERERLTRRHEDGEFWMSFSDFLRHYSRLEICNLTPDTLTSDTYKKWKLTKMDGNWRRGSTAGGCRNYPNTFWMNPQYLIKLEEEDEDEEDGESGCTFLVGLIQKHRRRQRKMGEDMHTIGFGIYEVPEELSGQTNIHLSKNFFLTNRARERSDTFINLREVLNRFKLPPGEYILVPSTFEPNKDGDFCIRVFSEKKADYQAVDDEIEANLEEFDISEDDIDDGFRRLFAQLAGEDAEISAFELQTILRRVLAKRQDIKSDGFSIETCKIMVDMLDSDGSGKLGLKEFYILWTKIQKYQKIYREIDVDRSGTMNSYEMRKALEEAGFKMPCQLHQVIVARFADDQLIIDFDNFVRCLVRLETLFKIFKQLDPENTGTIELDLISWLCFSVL
T2 sequence (P04632 1-268 partner): T1 sequence (P04632 1-268 partner)
Outline: as §1

[1] = tested on: Calpain activity in SH-SY5Y cells; assay: SH-SY5Y + AMC fluorescence assay (Suc-LLVY-AMC substrate); assay type: cell-based; conditions: read-out: SH-SY5Y + AMC IC50
Human Calpain 1/NS1 = biological target: T3, Human Calpain 1/NS1 (Homo sapiens, UniProt P07384); assay: Calpain inhibition continuous fluorescence (FRET) assay, Human Calpain 1/NS1; assay type: biochemical; conditions: read-out: Human Calpain 1/NS1 IC50
T3 sequence (P07384 1-714): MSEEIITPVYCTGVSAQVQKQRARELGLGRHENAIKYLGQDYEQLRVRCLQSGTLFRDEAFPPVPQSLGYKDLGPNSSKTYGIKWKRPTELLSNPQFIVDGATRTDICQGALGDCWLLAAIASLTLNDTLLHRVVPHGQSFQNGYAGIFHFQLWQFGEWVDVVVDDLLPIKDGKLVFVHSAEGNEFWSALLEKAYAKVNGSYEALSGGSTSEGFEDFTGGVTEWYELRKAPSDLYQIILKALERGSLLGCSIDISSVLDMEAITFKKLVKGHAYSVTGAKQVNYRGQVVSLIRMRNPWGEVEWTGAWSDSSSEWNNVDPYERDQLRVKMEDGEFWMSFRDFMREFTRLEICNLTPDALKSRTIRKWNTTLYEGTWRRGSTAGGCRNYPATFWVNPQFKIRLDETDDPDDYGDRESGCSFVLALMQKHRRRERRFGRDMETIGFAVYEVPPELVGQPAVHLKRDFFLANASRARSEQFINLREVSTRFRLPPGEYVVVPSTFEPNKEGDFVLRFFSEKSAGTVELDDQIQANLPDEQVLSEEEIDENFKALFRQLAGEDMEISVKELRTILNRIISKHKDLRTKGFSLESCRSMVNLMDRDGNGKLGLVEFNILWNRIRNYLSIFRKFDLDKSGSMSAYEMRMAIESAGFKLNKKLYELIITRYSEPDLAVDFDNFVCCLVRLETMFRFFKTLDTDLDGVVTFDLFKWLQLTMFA
T3 sequence (P04632 1-268 partner): T1 sequence (P04632 1-268 partner)
Outline: as §1

| Compound | IC50 (Human Calpain 9/NS1; Column C) | IC50 (Human Calpain 2/NS1; Column B) | IC50 ([1]; Column E) | IC50 (Human Calpain 1/NS1; Column A) | IC50 (Human Calpain 9/NS1) | IC50 (Human Calpain 2/NS1) | IC50 [1] | IC50 (Human Calpain 1/NS1) |
| --- | --- | --- | --- | --- | --- | --- | --- | --- |
| C[C@@H]1C[C@@H](C(=O)NC(Cc2ccccc2)C(=O)C(N)=O)N(c2ccccc2)C1 (stereo partly drawn) [Compound 292, (2S,4R)—N-(4-amino-3,4-dioxo-1-phenylbutan-2-yl)-4-methyl-1-phenylpyrrolidine-2-carboxamide] | < 3 µM | < 3 µM | > 25 µM | < 3 µM |  |  |  |  |
| (S)—N-(4-amino-3,4-dioxo-1-phenylbutan-2-yl)-1-methyl-3-(pyrimidin-4-yl)-1H-pyrazole-4-carboxamide [Compound 193] | 3 to 10 µM | < 3 µM | > 25 µM | 3 to 10 µM |  |  |  |  |
| Cc1cc(C(=O)N[C@@H](Cc2ccccc2)C(=O)C(=O)NC2CC2)n(-c2nc(-c3ccccc3)cs2)n1 [Compound 203, (S)—N-(4-(cyclopropylamino)-3,4-dioxo-1-phenylbutan-2-yl)-3-methyl-1-(4-phenylthiazol-2-yl)-1H-pyrazole-5-carboxamide] | > 10 µM | < 3 µM | > 25 µM | < 3 µM |  |  |  |  |
| Cc1cc(C(=O)N[C@@H](Cc2ccccc2)C(=O)C(N)=O)n(-c2cccc(C(F)(F)F)n2)n1 [Compound 59] | < 3 µM | < 3 µM | < 10 µM | < 3 µM |  |  |  |  |
| Cc1cc(C(=O)N[C@@H](Cc2ccccc2)C(=O)C(N)=O)n(-c2cccc(-c3ccccc3F)c2)n1 [Compound 214, (S)—N-(4-amino-3,4-dioxo-1-phenylbutan-2-yl)-1-(2′-fluoro-[1,1′-biphenyl]-3-yl)-3-methyl-1H-pyrazole-5-carboxamide] | < 3 µM | < 3 µM | > 25 µM | < 3 µM |  |  |  |  |
| COc1ccccc1-c1nn(C)cc1C(=O)NC(Cc1ccccc1)C(=O)C(N)=O (centres unmarked) [Compound 511, N-(4-amino-3,4-dioxo-1-phenylbutan-2-yl)-3-(2-methoxyphenyl)-1-methyl-1H-pyrazole-4-carboxamide] |  |  |  |  | < 3 µM | < 3 µM | > 25 µM | < 3 µM |
| O=C(NC1CC1)C(=O)C(Cc1ccccc1)NC(=O)c1cc(Cl)nn1-c1ncccn1 (centres unmarked) [Compound 457, 3-chloro-N-(4-(cyclopropylamino)-3,4-dioxo-1-phenylbutan-2-yl)-1-(pyrimidin-2-yl)-1H-pyrazole-5-carboxamide] |  |  |  |  | 3 to 10 µM | < 3 µM | < 10 µM | < 3 µM |
| NC(=O)C(=O)C(Cc1ccccc1)NC(=O)c1cn(C2CC2)nc1-c1ccc(C(F)(F)F)nc1 (centres unmarked) [Compound 414, N-(4-amino-3,4-dioxo-1-phenylbutan-2-yl)-1-cyclopropyl-3-(6-(trifluoromethyl)pyridin-3-yl)-1H-pyrazole-4-carboxamide] |  |  |  |  | < 3 µM | < 3 µM | > 25 µM | < 3 µM |
| Cc1cccc(-c2nsnc2C(=O)NC(Cc2ccccc2)C(=O)C(N)=O)c1F (centres unmarked) [Compound 368, N-(4-amino-3,4-dioxo-1-phenylbutan-2-yl)-4-(2-fluoro-3-methylphenyl)-1,2,5-thiadiazole-3-carboxamide] |  |  |  |  | < 3 µM | < 3 µM | < 10 µM | < 3 µM |
| NC(=O)C(=O)[C@H](Cc1ccccc1)NC(=O)[C@@H]1CCCN1c1ccccc1 [Compound 308, (S)—N—((S)-4-amino-3,4-dioxo-1-phenylbutan-2-yl)-1-phenylpyrrolidine-2-carboxamide] |  |  |  |  | < 3 µM | < 3 µM | > 25 µM | < 3 µM |
| Cc1nc(C(=O)NC(Cc2ccccc2)C(=O)C(N)=O)c(-c2ccccc2)o1 (centres unmarked) [Compound 494, N-(4-amino-3,4-dioxo-1-phenylbutan-2-yl)-2-methyl-5-phenyloxazole-4-carboxamide] |  |  |  |  | < 3 µM | < 3 µM | > 25 µM | < 3 µM |
| Cn1ncc(C(=O)N[C@@H](Cc2ccccc2)C(=O)C(N)=O)c1-c1cccnc1 [Compound 189, (S)—N-(4-amino-3,4-dioxo-1-phenylbutan-2-yl)-1-methyl-5-(pyridin-3-yl)-1H-pyrazole-4-carboxamide] | < 3 µM | < 3 µM |  | < 3 µM |  |  |  |  |
| O=C(NC1CC1)C(=O)[C@H](Cc1ccccc1)NC(=O)c1cncn1-c1ccn(-c2ccccc2)n1 [Compound 42, (S)—N-(4-(cyclopropylamino)-3,4-dioxo-1-phenylbutan-2-yl)-1-(1-phenyl-1H-pyrazol-3-yl)-1H-imidazole-5-carboxamide] | > 10 µM | < 3 µM |  | < 3 µM |  |  |  |  |
| Cc1cc(C(=O)N[C@@H](Cc2ccccc2)C(=O)C(=O)NC2CC2)n(-c2cncnc2)n1 [Compound 127] | < 3 µM | < 3 µM |  | < 3 µM |  |  |  |  |
| NC(=O)C(=O)[C@H](Cc1ccccc1)NC(=O)c1scnc1-c1ccccn1 [Compound 109, (S)—N-(4-amino-3,4-dioxo-1-phenylbutan-2-yl)-4-(pyridin-2-yl)thiazole-5-carboxamide] | < 3 µM | < 3 µM |  | < 3 µM |  |  |  |  |
| Cc1noc(-c2ccccc2)c1C(=O)N[C@@H](CC(C)(C)C)C(=O)C(N)=O [Compound 56] | < 3 µM | < 3 µM |  | < 3 µM |  |  |  |  |
| NC(=O)C(=O)[C@H](Cc1ccccc1)NC(=O)c1[nH]cnc1-c1ccccc1 [Compound 48, (S)—N-(4-amino-3,4-dioxo-1-phenylbutan-2-yl)-4-phenyl-1H-imidazole-5-carboxamide] | 3 to 10 µM | 3 to 10 µM |  | 3 to 10 µM |  |  |  |  |
| O=C(NC1CC1)C(=O)[C@H](Cc1ccccc1)NC(=O)c1cncn1-c1cc(-c2ncco2)ccn1 [Compound 77, (S)—N-(4-(cyclopropylamino)-3,4-dioxo-1-phenylbutan-2-yl)-1-(4-(oxazol-2-yl)pyridin-2-yl)-1H-imidazole-5-carboxamide] | > 10 µM | 3 to 10 µM |  | < 3 µM |  |  |  |  |
